The values below come from patent US12187706B2, “NLRP3 modulators” (INNATE TUMOR IMMUNITY, INC., priority 2019, dated 2025).

In the assay the target is T1, NLRP3 (Homo sapiens, UniProt Q96P20).
T1 construct: host or cells: PMA-differentiated THP-1 cells
T1 sequence (Q96P20 whole entry): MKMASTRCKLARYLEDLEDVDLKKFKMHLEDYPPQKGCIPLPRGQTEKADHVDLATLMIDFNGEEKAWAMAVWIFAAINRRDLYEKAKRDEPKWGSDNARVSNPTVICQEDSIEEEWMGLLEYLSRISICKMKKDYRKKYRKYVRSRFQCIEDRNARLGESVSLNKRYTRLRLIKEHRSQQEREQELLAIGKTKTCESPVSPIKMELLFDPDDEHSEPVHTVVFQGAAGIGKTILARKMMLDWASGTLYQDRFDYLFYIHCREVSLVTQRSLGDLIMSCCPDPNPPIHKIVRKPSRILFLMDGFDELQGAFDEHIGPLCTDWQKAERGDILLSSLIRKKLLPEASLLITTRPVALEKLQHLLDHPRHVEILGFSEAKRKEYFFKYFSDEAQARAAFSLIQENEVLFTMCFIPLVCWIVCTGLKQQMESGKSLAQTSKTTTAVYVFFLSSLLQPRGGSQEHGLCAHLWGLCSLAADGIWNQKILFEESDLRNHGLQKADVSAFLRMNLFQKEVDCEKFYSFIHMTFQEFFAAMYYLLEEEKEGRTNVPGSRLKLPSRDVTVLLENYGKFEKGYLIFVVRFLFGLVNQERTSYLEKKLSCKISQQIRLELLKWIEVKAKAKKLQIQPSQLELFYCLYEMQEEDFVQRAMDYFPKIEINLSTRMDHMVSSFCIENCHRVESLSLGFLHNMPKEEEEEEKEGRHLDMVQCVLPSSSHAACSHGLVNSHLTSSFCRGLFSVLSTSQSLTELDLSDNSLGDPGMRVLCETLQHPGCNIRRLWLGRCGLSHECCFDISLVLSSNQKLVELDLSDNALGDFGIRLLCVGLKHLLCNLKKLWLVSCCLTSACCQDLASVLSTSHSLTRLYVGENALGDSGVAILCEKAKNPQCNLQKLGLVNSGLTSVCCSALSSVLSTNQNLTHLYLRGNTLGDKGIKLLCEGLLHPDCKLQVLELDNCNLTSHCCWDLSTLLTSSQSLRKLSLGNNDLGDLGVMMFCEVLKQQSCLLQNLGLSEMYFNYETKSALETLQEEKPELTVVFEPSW
Description: Measurement of IL-1β production in PMA-differentiated THP-1 cells (NLRP3 hIL1B). Type of assay: cell-based. On the procedure:
Measurement of IL-1β Production in PMA-Differentiated THP-1 Cells
THP-1 cells were purchased from the American Type Culture Collection and sub-cultured according to instructions from the supplier. Prior to experiments, cells were cultured in RPMI 1640 containing 10% heat inactivated FBS, penicillin (100 units/ml) and streptomycin (100 μg/ml), and maintained in log phase prior to experimental setup. Prior to the experiment THP-1 were treated with PMA (Phorbol 12-myristate 13-acetate) (10 μg/ml) for 24 hours. The day of the experiment the media was removed and attaching cells were treated with trypsin for 2 minutes, cells were then collected, washed with PBS (phosphate buffer saline), spin down, resuspended in 2% heat inactivated FBS with RPMI at a concentration of 1×10^6 cells/ml, and 100 μl was plated in a 96 well plate. Compounds were dissolved in dimethyl sulfoxide (DMSO) and added to the culture medium to achieve desired concentration (e.g. 100, 30, 10, 3, 1, 0.3 or 0.1 μM). Cells were incubated with compounds for 4 hours. Cell free supernatant was collected and the production of IL-1β was evaluated by ELISA. A vehicle only control was run concurrently with each experiment. Final DMSO concentration was 1%.
Measurement of IL-1β Production in PMA-Differentiated THP-1 Cells (Alternative Procedure)
THP-1 cells were purchased from the American Type Culture Collection and sub-cultured according to instructions from the supplier. Prior to experiments, cells were cultured in RPMI 1640 containing 10% heat inactivated FBS, penicillin (100 units/ml), streptomycin (100 μg/ml), HEPES (10 mM) and sodium pyruvate (1 mM) and maintained in log phase prior to experimental setup. Prior to the experiment, THP-1 cells were treated with PMA (Phorbol 12-myristate 13-acetate) (20 μg/ml) overnight. The day of the experiment, the media was removed and attached cells were treated with trypsin for 2 minutes, cells were then collected, washed with PBS (phosphate buffer saline), pelleted by centrifugation and resuspended in 2% heat inactivated FBS with RPMI at a concentration of 50,000 cells/well in a 384 well plate. Cell free supernatant was collected and the production of IL-1β was evaluated by ELISA. Compounds were dissolved in dimethyl sulfoxide (DMSO) and added to the culture medium to achieve desired concentration (e.g. 100, 30, 10, 3, 1, 0.3 or 0.1 μM). Cells were incubated with compounds for 2 hours. A vehicle only control was run concurrently with each experiment. Final DMSO concentration was 1%.
Measurement of IL-1β Production—hTRF Protocol (Second Alternative Procedure)
Serial dilutions of compounds in DMSO were added to low volume 384 well plates at 100 nl/well using an ECHO 550 acoustic dispenser (Labcyte) to achieve final starting concentration of 10 μM in assay.
THP-1 cells in RPMI (Gibco, 11875) media with 10% FBS at a density of 1×10^6 cell/ml in a T175 flask were treated with a final concentration of phorbol 12-myristate 13-acetate (PMA) (Sigma, P1585) of 50 ng/ml overnight at 37° C. at 5% CO2 for differentiation. Cells were harvested the next day after rinsing well with dPBS using 0.5% trypsin. A cell solution was prepared of 1×10^6 cells/ml for 50,000 cells in 50 μl/well in RPMI media with 2% FBS. Cells were plated using a multichannel pipette onto the compound dilutions in Greiner, 384 well, black clear bottom tissue culture treated plates (781090). The plates were incubated in 37° C. incubator at 5% CO2 for 2 hours.
After the 2 hour incubation, the cell plates were spun in the centrifuge for 5 minutes at 1200 rpm. Using the Felix (CyBio), 8 μl of the supernatant was transferred to 384 well, low volume, white proxy plates. (Perkin Elmer, 6008230). A human IL1beta hTRF kit was used to analyze the supernatant (CISBIO, 62HIL1BPEG). The kit instructions were followed for preparing the IL1Beta standard curve and then the antibodies from the kit were diluted 1:40 rather than 1:20 as kit instructed.
Regarding `Nc1nc(NCC2CCC(=O)N2)c2ccc(-c3ccn[nH]3)cc2n1` (single isomer, unassigned) [Example 5, 5-(((2-amino-7-(1H-pyrazol-5-yl)quinazolin-4-yl)amino)methyl)pyrrolidin-2-one], the response was half-maximal at 13000 nM (EC50).
Regarding `Nc1nc(NC(CO)c2ncc[nH]2)c2ccc(-c3ccn[nH]3)cc2n1` (stereo not shown) [Example 34], the EC50 (usually the midpoint of the concentration-response curve) came out at 7670 nM.
In the case of `Nc1nc(NCc2nc[nH]n2)c2ccc(-c3ccn[nH]3)cc2n1` [Example 32] it was 640 nM; in that of `Nc1nc(N[C@@H]2C[C@H]2c2cccnc2)c2ccc(-c3ccn[nH]3)cc2n1` (single isomer, unassigned) [Example 163, 7-(1H-pyrazol-5-yl)-N4-((trans)-2-(pyridin-3-yl)cyclopropyl)quinazoline-2,4-diamine], 650 nM.
As for `Cc1cccc2nc(CNc3nc(N)nc4cc(-c5ccn[nH]5)ccc34)cn12` [Example 161], it took 2000 nM to reach a half-maximal effect (EC50).
With `Nc1nc(N[C@H]2C[C@H](O)C[C@@H]2O)c2ccc(-c3cc[nH]n3)cc2n1` (racemic) [Example 118] the figure was 980 nM.
In the case of `N#CCCNc1nc(N)nc2cc(-c3ccn[nH]3)ccc12` [Example 58] it was 700 nM; in that of `Nc1nc(NCC2(O)CCOCC2)c2ccc(-c3ccn[nH]3)cc2n1` [Example 37], 870 nM.
With `Nc1nc(NCCCO)c2c(Cl)cc(-c3cc[nH]n3)cc2n1` [Example 18, 3-((2-amino-5-chloro-7-(1H-pyrazol-3-yl)quinazolin-4-yl)amino)propan-1-ol] the figure was 650 nM; with `Nc1nc(NCc2cc3n(n2)CCCO3)c2ccc(-c3ccn[nH]3)cc2n1` [Example 44], 2150 nM.
Turning to `Nc1nc(NCCCO)c2cc(Cl)c(-c3ccn[nH]3)cc2n1` [Example 3, 3-((2-amino-6-chloro-7-(1H-pyrazol-5-yl)quinazolin-4-yl)amino)propan-1-ol], a half-maximal response (EC50) required 6840 nM.
In the case of `Nc1nc(NCCO)c2ccc(-c3ccn[nH]3)cc2n1` [Example 45] it was 450 nM; in that of `Nc1nc(NCc2cccnc2)c2ccc(-c3ccn[nH]3)cc2n1` [Example 144], 90 nM.
In the case of `Nc1nc(NCc2ccc(Cl)cn2)c2ccc(-c3ccn[nH]3)cc2n1` [Example 151] it was 650 nM; in that of `C[C@]1(O)C[C@H](Nc2nc(N)nc3cc(-c4ccn[nH]4)ccc23)C1` [Example 192, (trans)-3-((2-amino-7-(1H-pyrazol-5-yl)quinazolin-4-yl)amino)-1-methylcyclobutan-1-ol], 370 nM.
In the case of `Nc1nc(N[C@@H]2CC[C@@H](O)[C@@H]2O)c2ccc(-c3ccn[nH]3)cc2n1` (racemic) [Example 110] it was 640 nM; in that of `Nc1nc(NCc2cocn2)c2ccc(-c3ccn[nH]3)cc2n1` [Example 155], 490 nM.
`Nc1nc(N[C@@H]2CCCC[C@@H]2O)c2ccc(-c3ccn[nH]3)cc2n1` [Example 68] had an EC50 of 1100 nM.
`CN(C)c1ccc(CNc2nc(N)nc3cc(-c4ccn[nH]4)ccc23)nn1` [Example 164, N4-((6-(dimethylamino)pyridazin-3-yl)methyl)-7-(1H-pyrazol-5-yl)quinazoline-2,4-diamine] gave an EC50 of 1240 nM.
Regarding `Nc1nc(N[C@H]2COCC[C@@H]2O)c2ccc(-c3ccn[nH]3)cc2n1` [Example 53], the midpoint of the response, the EC50, lay at 1350 nM.
With `Nc1nc(Nc2ccon2)c2ccc(-c3ccn[nH]3)cc2n1` [Example 113] the figure was 2230 nM; with `Nc1nc(NCc2cc[nH]n2)c2ccc(-c3ccn[nH]3)cc2n1` [Example 27], 430 nM; with `Cc1cc(C)c(CNc2nc(N)nc3cc(-c4ccn[nH]4)ccc23)c(=O)[nH]1` [Example 143], 1230 nM.
With `Nc1nc(NCC2CCC(=O)N2)c2ccc(-c3ccn[nH]3)cc2n1` (stereo not shown) [Example 43] the figure was 1040 nM; with `Nc1nc(N2CCCOCC2)c2ccc(-c3cc[nH]n3)cc2n1` [Example 120], 680 nM.
With `Nc1nc(NC2(CO)CC2)c2ccc(-c3ccn[nH]3)cc2n1` [Example 65] the figure was 250 nM.
The compound `CC(C)(O)CNc1nc(N)nc2cc(-c3ccn[nH]3)ccc12` [Example 29] registered an EC50 of 390 nM.
In the case of `NC(=O)CC(Nc1nc(N)nc2cc(-c3ccn[nH]3)ccc12)c1cccnc1` (stereo not shown) [Example 82] it was 3650 nM; in that of `Nc1nc(NC[C@H]2C[C@@H](O)C2)c2ccc(-c3ccn[nH]3)cc2n1` [Example 166], 810 nM.
In the case of `C[C@@]1(O)CC[C@@H](Nc2nc(N)nc3cc(-c4ccn[nH]4)ccc23)C1` (racemic) [Example 108] it was 4170 nM.
In the case of `Nc1nc(NCc2ccn(-c3ccccn3)n2)c2ccc(-c3ccn[nH]3)cc2n1` [Example 187] it was 230 nM; in that of `Nc1nc(NC2C[C@@H](O)[C@H](O)C2)c2ccc(-c3ccn[nH]3)cc2n1` (racemic) [Example 109], 1950 nM; in that of `Nc1nc(NCCOCCO)c2ccc(-c3ccn[nH]3)cc2n1` [Example 140], 1020 nM.
The compound `Nc1nc(N[C@H]2CCC[C@H](O)C2)c2c(F)cc(-c3cc[nH]n3)cc2n1` (racemic) [Example 17, trans-3-((2-amino-5-fluoro-7-(1H-pyrazol-3-yl)quinazolin-4-yl)amino)cyclohexan-1-ol] returned an EC50 of 950 nM.
With `Nc1nc(N[C@H]2CCC[C@H]2O)c2ccc(-c3ccn[nH]3)cc2n1` [Example 66] the figure was 740 nM; with `CC(CO)(CO)Nc1nc(N)nc2cc(-c3ccn[nH]3)ccc12` [Example 83], 2410 nM.
With `Nc1nc(NCc2cc[nH]n2)c2c(Cl)cc(-c3cc[nH]n3)cc2n1` [Example 129] the figure was 370 nM.
With `Nc1nc(NC[C@H]2C[C@H](O)C2)c2ccc(-c3ccn[nH]3)cc2n1` [Example 167] the figure was 1240 nM; with `Nc1nc(Nc2cnoc2)c2ccc(-c3ccn[nH]3)cc2n1` [Example 114], 370 nM.
As to `Cn1ccnc1C(O)CNc1nc(N)nc2cc(-c3ccn[nH]3)ccc12` (single isomer, unassigned) [Example 149, 2-((2-amino-7-(1H-pyrazol-5-yl)quinazolin-4-yl)amino)-1-(1-methyl-1H-imidazol-2-yl)ethan-1-ol], a half-maximal response (EC50) required 4420 nM.
`Nc1nc(NCc2cnsc2)c2ccc(-c3ccn[nH]3)cc2n1` [Example 174] came in with a concentration for a half-maximal effect (EC50) of 180 nM.
With `Nc1nc(NCC#CCO)c2ccc(-c3ccn[nH]3)cc2n1` [Example 106] the figure was 500 nM; with `C[C@]1(O)C[C@@H](Nc2nc(N)nc3cc(-c4ccn[nH]4)ccc23)C1` [Example 191, (cis)-3-((2-amino-7-(1H-pyrazol-5-yl)quinazolin-4-yl)amino)-1-methylcyclobutan-1-ol], 460 nM; with `Nc1nc(Nc2cc[nH]n2)c2ccc(-c3ccn[nH]3)cc2n1` [Example 2, N4-(1H-pyrazol-3-yl)-7-(1H-pyrazol-5-yl)quinazoline-2,4-diamine], 220 nM.
In the case of `COc1cc(-c2cc[nH]n2)cc2nc(N)nc(NCCO)c12` [Example 131] it was 5610 nM; in that of `Nc1nc(NCC(F)F)c2ccc(-c3ccn[nH]3)cc2n1` [Example 78], 630 nM; in that of `Nc1nc(NCc2cncs2)c2ccc(-c3ccn[nH]3)cc2n1` [Example 175], 730 nM.
With `CC(C)(C)CNc1nc(N)nc2cc(-c3ccn[nH]3)ccc12` [Example 181] the figure was 180 nM.
For the compound `Nc1nc(NCCn2cncn2)c2ccc(-c3ccn[nH]3)cc2n1` [Example 31], a half-maximal effect (EC50) was put at 800 nM.
